Test results: ChEMBL document CHEMBL3885881, “DrugMatrix”

Species: Rattus norvegicus
Test: DrugMatrix - Regimen: Daily Repeat
Format: toxicity, organism-based, Sprague-Dawley
Parameters: regimen Daily Repeat, gender Male, age 6-8 weeks
Conditions: in vivo, po, […], route oral GAVAGE; for ABSOLUTE BASOPHIL / ABSOLUTE EOSINOPHIL / ABSOLUTE LYMPHOCYTE / ABSOLUTE MONOCYTE / ABSOLUTE SEGMENTED NEUTROPHIL / BASOPHIL / EOSINOPHIL / ERYTHROCYTE COUNT / HEMATOCRIT / HEMOGLOBIN / LEUKOCYTE COUNT / LYMPHOCYTE / MEAN CORPUSCULAR HEMOGLOBIN / MEAN CORPUSCULAR HEMOGLOBIN CONCENTRATION / MEAN CORPUSCULAR VOLUME / MONOCYTE / NEUTROPHIL / NUCLEATED RED BLOOD CELLS / PLATELET COUNT: tissue Blood; for ALANINE AMINOTRANSFERASE / ALBUMIN / ALKALINE PHOSPHATASE / ASPARTATE AMINOTRANSFERASE / BLOOD UREA NITROGEN / CARBON DIOXIDE / CHLORIDE / CHOLESTEROL / CREATINE PHOSPHOKINASE / CREATININE / GLUCOSE / LACTATE DEHYDROGENASE / LIPASE / PHOSPHORUS / POTASSIUM / SODIUM / TOTAL BILIRUBIN / TOTAL PROTEIN / URIC ACID: tissue Plasma
[1] = 30 mg/kg, dose level Low, time 7 day
[2] = 60 mg/kg, 72 h, dose level High, time 3 day
[3] = 60 mg/kg, dose level High, time 7 day

S=C=Nc1cccc2ccccc12 [1-NAPHTHYLISOTHIOCYANATE]
ABSOLUTE BASOPHIL [1]: 0 CELLS/uL
ABSOLUTE EOSINOPHIL [1]: 0 CELLS/uL
ABSOLUTE LYMPHOCYTE [1]: 18648 CELLS/uL
ABSOLUTE MONOCYTE [1]: 658.33 CELLS/uL
ABSOLUTE SEGMENTED NEUTROPHIL [1]: 6027 CELLS/uL
BASOPHIL [1]: 0%
EOSINOPHIL [1]: 0%
ERYTHROCYTE COUNT [1]: 5.54 x10E6/uL
HEMATOCRIT [1]: 31.6%
HEMOGLOBIN [1]: 13.02 G/DL
LEUKOCYTE COUNT [1]: 25.33 x10E3/uL
LYMPHOCYTE [1]: 74.17%
MEAN CORPUSCULAR HEMOGLOBIN [1]: 23.55 pg
MEAN CORPUSCULAR HEMOGLOBIN CONCENTRATION [1]: 41.2 G/DL
MEAN CORPUSCULAR VOLUME [1]: 57.07 fL
MONOCYTE [1]: 2.33%
NEUTROPHIL [1]: 23.5%
NUCLEATED RED BLOOD CELLS [1]: 0 /100WBC
PLATELET COUNT [1]: 1468.17 x10E3/uL
ALANINE AMINOTRANSFERASE [1]: 195.83 u/L
ALBUMIN [1]: 3.78 G/DL
ALKALINE PHOSPHATASE [1]: 515.67 u/L
ASPARTATE AMINOTRANSFERASE [1]: 302 u/L
BLOOD UREA NITROGEN [1]: 11.83 mg/dL
CARBON DIOXIDE [1]: 27.67 mmol/L
CHLORIDE [1]: 96.67 MEQ/L
CHOLESTEROL [1]: 137 mg/dL
CREATINE PHOSPHOKINASE [1]: 291.83 u/L
CREATININE [1]: 0.18 mg/dL
GLUCOSE [1]: 98.33 mg/dL
LACTATE DEHYDROGENASE [1]: 164.67 u/L
LIPASE [1]: 11 u/L
PHOSPHORUS [1]: 8.68 mg/dL
POTASSIUM [1]: 6.99 MEQ/L
SODIUM [1]: 139.38 MEQ/L
TOTAL BILIRUBIN [1]: 3.15 mg/dL
TOTAL PROTEIN [1]: 6.52 G/DL
URIC ACID [1]: 0.93 mg/dL
ABSOLUTE BASOPHIL [2]: 0 CELLS/uL
ABSOLUTE EOSINOPHIL [2]: 24.67 CELLS/uL
ABSOLUTE LYMPHOCYTE [2]: 8862.67 CELLS/uL
ABSOLUTE MONOCYTE [2]: 317.33 CELLS/uL
ABSOLUTE SEGMENTED NEUTROPHIL [2]: 2312 CELLS/uL
BASOPHIL [2]: 0%
EOSINOPHIL [2]: 0.33%
ERYTHROCYTE COUNT [2]: 6.41 x10E6/uL
HEMATOCRIT [2]: 39.08%
HEMOGLOBIN [2]: 14.75 G/DL
LEUKOCYTE COUNT [2]: 11.52 x10E3/uL
LYMPHOCYTE [2]: 77%
MEAN CORPUSCULAR HEMOGLOBIN [2]: 23 pg
MEAN CORPUSCULAR HEMOGLOBIN CONCENTRATION [2]: 37.77 G/DL
MEAN CORPUSCULAR VOLUME [2]: 60.88 fL
MONOCYTE [2]: 2.5%
NEUTROPHIL [2]: 20.17%
NUCLEATED RED BLOOD CELLS [2]: 0.17 /100WBC
PLATELET COUNT [2]: 1204.67 x10E3/uL
ALANINE AMINOTRANSFERASE [2]: 183.5 u/L
ALBUMIN [2]: 3.77 G/DL
ALKALINE PHOSPHATASE [2]: 566.83 u/L
ASPARTATE AMINOTRANSFERASE [2]: 458.5 u/L
BLOOD UREA NITROGEN [2]: 11.67 mg/dL
CARBON DIOXIDE [2]: 28.67 mmol/L
CHLORIDE [2]: 94.67 MEQ/L
CHOLESTEROL [2]: 312 mg/dL
CREATINE PHOSPHOKINASE [2]: 420.5 u/L
CREATININE [2]: 0.28 mg/dL
GLUCOSE [2]: 125.17 mg/dL
LACTATE DEHYDROGENASE [2]: 229.33 u/L
LIPASE [2]: 12.5 u/L
PHOSPHORUS [2]: 8.75 mg/dL
POTASSIUM [2]: 6.43 MEQ/L
SODIUM [2]: 140.67 MEQ/L
TOTAL BILIRUBIN [2]: 3.47 mg/dL
TOTAL PROTEIN [2]: 6.93 G/DL
URIC ACID [2]: 0.85 mg/dL
ABSOLUTE BASOPHIL [3]: 0 CELLS/uL
ABSOLUTE EOSINOPHIL [3]: 0 CELLS/uL
ABSOLUTE LYMPHOCYTE [3]: 17693.83 CELLS/uL
ABSOLUTE MONOCYTE [3]: 897.83 CELLS/uL
ABSOLUTE SEGMENTED NEUTROPHIL [3]: 12275 CELLS/uL
BASOPHIL [3]: 0%
EOSINOPHIL [3]: 0%
ERYTHROCYTE COUNT [3]: 5.43 x10E6/uL
HEMATOCRIT [3]: 31.22%
HEMOGLOBIN [3]: 12.83 G/DL
LEUKOCYTE COUNT [3]: 30.87 x10E3/uL
LYMPHOCYTE [3]: 60.83%
MEAN CORPUSCULAR HEMOGLOBIN [3]: 23.63 pg
MEAN CORPUSCULAR HEMOGLOBIN CONCENTRATION [3]: 41.02 G/DL
MEAN CORPUSCULAR VOLUME [3]: 57.68 fL
MONOCYTE [3]: 2.67%
NEUTROPHIL [3]: 36.5%
NUCLEATED RED BLOOD CELLS [3]: 0 /100WBC
PLATELET COUNT [3]: 1574.83 x10E3/uL
ALANINE AMINOTRANSFERASE [3]: 179.83 u/L
ALBUMIN [3]: 3.78 G/DL
ALKALINE PHOSPHATASE [3]: 516 u/L
ASPARTATE AMINOTRANSFERASE [3]: 418 u/L
BLOOD UREA NITROGEN [3]: 12.33 mg/dL
CARBON DIOXIDE [3]: 26.67 mmol/L
CHLORIDE [3]: 94 MEQ/L
CHOLESTEROL [3]: 384.5 mg/dL
CREATINE PHOSPHOKINASE [3]: 339.67 u/L
CREATININE [3]: 0.1 mg/dL
GLUCOSE [3]: 96.33 mg/dL
LACTATE DEHYDROGENASE [3]: 286.67 u/L
LIPASE [3]: 12.17 u/L
PHOSPHORUS [3]: 8.75 mg/dL
POTASSIUM [3]: 6.62 MEQ/L
SODIUM [3]: 137.88 MEQ/L
TOTAL BILIRUBIN [3]: 8.2 mg/dL
TOTAL PROTEIN [3]: 6.48 G/DL
URIC ACID [3]: 0.87 mg/dL
